As usually defined, the IC50 is the concentration at which inhibition is half-maximal.

Where two headings read alike, the source gives them in different places.

Holding throughout (format): cell-based
For data set [1], the system named is PGE2 production in LPS-treated RAW 264.7 macrophages. Description: Inhibition of PGE2 production in LPS-treated RAW264.7 macrophages, PGE2 ELISA kit. The conditions noted are these: RAW 264.7 macrophages pre-treated 3 hours, then LPS (1 μg/mL) 24 hours. An excerpt: RPMI1640, fetal bovine serum (FBS), and other tissue culture reagents were purchased from Gibco BRL Co. (Grand Island, N.Y., USA). All other chemicals were obtained from Sigma-Aldrich Co. (St. Louis, Mo., USA). Primary antibodies (COX-2: sc-1745; iNOS: sc-650; IκB-α: sc-371; p-IκB-α: sc-8404; p50: sc-7178; p65: sc-8008, Santa Cruz Biotechnology, Dallas, Tex., USA, p-ERK: #9101; ERK: #9102; p-JNK: #9251; JNK: #9252S; p-p38: #9211; p38: 9212S, Cell Signaling Technology, Danvers, Mass., USA) and secondary antibodies (mouse: ap124p; goat: ap106p; rabbit: ap132p, Millipore, Billerica Mass., USA) were used. Enzyme-linked immunosorbent assay (ELISA) kits for PGE2 were purchased from R and D Systems, Inc. (Minneapolis, Minn., USA).
(§1) In the present example, RAW264.7 macrophages were pre-treated for 3 hours in the medium containing non-toxic concentrations (Table 1) of each compound (Formula 1 to 4), and then LPS (1 μg/mL) was treated for 24 hours. According to the LPS stimulation of RAW264.7 macrophages, the production of NO and PGE2 was increased, and the effects of all compounds on the production levels of NO and PGE2 were evaluated by the Griess reaction and a PGE2 kit, respectively.

For data set [2], the system named is NO production in LPS-treated RAW 264.7 macrophages. Kind of data set: Inhibition of NO (nitrite) production in LPS-treated RAW264.7 macrophages, Griess reaction. The conditions noted are these: RAW 264.7 macrophages pre-treated 3 hours, then LPS (1 μg/mL) 24 hours. Here is the method: As an indicator of NO production in RAW264.7 macrophages, production of nitrite, which is a stable end-product of NO oxidation, was evaluated. The concentration of nitrite in conditioned media was determined based on the Griess reaction.
as §1

The test system of the next data set is RAW264.7 macrophages. Description: Cytotoxicity by MTT assay. Here is the method: In the present example, the cytotoxicity of each of the compounds of Formula 1 to 4 was confirmed in RAW264.7 macrophages by MTT assay.
RAW264.7 macrophages were maintained at a density of 5×10^5 cells/mL in RPMI1640 medium supplemented with 10% heat-inactivated FBS, penicillin G (100 units/mL), streptomycin ([…]), and L-glutamine (2 mM), and were incubated at 37° C. in a humidified atmosphere containing 5% CO2. To determine cell viability, cells (1×10^5 cells/well in 96-well plates) were incubated with 3-(4,5-dimethylthiazol-2-yl)-2,5-diphenyltetrazolium bromide (MTT) at a final concentration of 0.5 mg/mL for 3 hours, and the formazan formed was dissolved in acidic 2-propanol. The optical density was measured at 540 nm with a microplate reader (BioRad, Hercules, Calif., USA). The optical density of the formazan formed in control (untreated) cells was considered to represent 100% viability.
In general terms: Tetrazolium dyes change colour on reduction, which living cells bring about.

The subject of another data set is NF-κB (p50 and p65). Description: NF-κB activation: nuclear translocation of p50 and p65 in LPS-induced RAW264.7 macrophages. The conditions noted are these: FIG. 2(a).
For a further data set, the system named is NF-κB. Description: DNA binding activity of NF-κB in nuclear extracts, NF-κB ELISA kit. The following applies: FIG. 2(c). Here is the method: (§2) In the present example, a NF-κB ELISA kit (Active Motif) was used to test the nuclear extracts and determine the degree of NF-κB binding. […] Furthermore, when the cells were treated with LPS alone, the phosphorylation level of IκB-α was increased, whereas the compound of Formula 3 attenuated this phosphorylation of IκB-α. In addition, the compound of Formula 3 blocked the degradation of IκB-α in a concentration-dependent manner (see FIG. 2(b)). In line with these, LPS-induced DNA binding activity of NF-κB was declined in the nuclear extracts of the cells co-treated with the compound of Formula 3 (see FIG. 2(c)).
For orientation: ELISA stands for enzyme-linked immunosorbent assay.

In data set [3] the test system is c-Jun N-terminal kinase (JNK). Kind of data set: LPS-induced JNK phosphorylation in RAW264.7 macrophages. The conditions noted are these: LPS 30 minutes; FIG. 3(b). An excerpt:
(§3) Mitogen-activated protein kinase (MAPK) pathways are known to be involved in the expression of pro-inflammatory cytokines in macrophages. Thus, the effect of the compound of Formula 3 on the LPS-induced phosphorylation of MAPK was examined.

The subject of the next data set is iNOS. Description: iNOS protein expression in LPS-stimulated RAW264.7 macrophages. The following applies: pre-treated 3 hours, LPS 24 hours; FIG. 1(a). Here is the method: (§4) Therefore, the inventors of the present invention further tested whether the inhibitory effects of the compound of Formula 3 against NO and PGE2 productions are correlated with the protein expression of pro-inflammatory enzymes (e.g., iNOS or COX-2, respectively), which are known to catalyze the production of NO and PGEs in LPS-stimulated cells. RAW264.7 macrophages were pre-treated with the indicated concentrations of the compound of Formula 3 for 3 hours, and then stimulated with LPS for 24 hours. The presence of the compound of Formula 3 led to the attenuation of the excessive protein expression of iNOS and COX-2 in a dose-dependent manner (see FIG. 1(a)).

The subject of the next data set is IL-1β. Kind of data set: IL-1β mRNA expression in LPS-induced cells, RT-qPCR. The following applies: pre-treated 3 hours, LPS (1 μg/mL) 6 hours; FIG. 1(b). Here is the method:
(§5) In addition, upon stimulation by LPS, macrophages can trigger the production of pro-inflammatory cytokines such as TNF-α and ILs. The overproduction of these cytokines contributes to the pathogenesis of inflammatory diseases. Thus, the inventors of the present invention further evaluated the effects of the compound of Formula 3 on the mRNA expression of pro-inflammatory cytokines in the LPS-induced cells. The cells were pre-treated with indicated concentration for 3 hours, followed by LPS stimulation (1 μg/mL) for 6 hours. The mRNA expression of pro-inflammatory cytokines was determined by RT-qPCR.
A general note: Real-time PCR tracks product formation cycle by cycle.

The next data set relates to TNF-α. Kind of data set: TNF-α mRNA expression in LPS-induced cells, RT-qPCR. The conditions noted are these: pre-treated 3 hours, LPS (1 μg/mL) 6 hours; FIG. 1(d). Here is the method:
as §5

In another data set the test system is COX-2. Description: COX-2 protein expression in LPS-stimulated RAW264.7 macrophages. The conditions noted are these: pre-treated 3 hours, LPS 24 hours; FIG. 1(a). Here is the method:
as §4

The next data set has as its system IκB-α. Description: IκB-α phosphorylation and degradation in LPS-induced RAW264.7 macrophages. The conditions noted are these: FIG. 2(b). Here is the method: as §2
Another data set deals with p38. Description: LPS-induced p38 phosphorylation in RAW264.7 macrophages. The following applies: LPS 30 minutes; FIG. 3(a).
From the text: as §3

In another data set the test system is IL-6. Description: IL-6 mRNA expression in LPS-induced cells, RT-qPCR. The following applies: pre-treated 3 hours, LPS (1 μg/mL) 6 hours; FIG. 1(c). Here is the method:
as §5

Data set [4] deals with extracellular signal-regulated kinase (ERK). Description: LPS-induced ERK phosphorylation in RAW264.7 macrophages. The following applies: LPS 30 minutes; FIG. 3(c).
From the text: as §3

Regarding `CC1CCCCCC(=O)c2c(O)cc(O)cc2CC(=O)O1` (stereo not drawn) [Formula 1a, curvularin], the IC50 in [1] worked out at 18.7 ± 4.9 µM; in data set [2] it was 18.1 ± 5.2 µM. Moreover, the “Cytotoxicity (μM): the maximum concentration not affecting cell viability” value in the data set with RAW264.7 macrophages (RAW264.7 macrophages, MTT) stood at 40 µM.

In the case of `C[C@H]1CCC/C=C/C(=O)c2c(O)cc(O)cc2CC(=O)O1` [Formula 3, (10E,15S)-10,11-dehydrocurvularin], in the data set with NF-κB (p50 and p65), the “Nuclear translocation of p50 and p65” value is listed as “dose-dependently suppressed”. The “LPS-induced DNA binding activity of NF-κB” value with NF-κB is listed as “declined”. Besides, the “Phosphorylation of JNK” value in data set [3] is recorded as “did not suppress”. Also, the “Protein expression of iNOS” value with iNOS is “attenuation”. Further, the “mRNA expression of IL-1β” value in the data set on IL-1β was “significantly suppressed”. The IC50 in data set [1] (Mus musculus, RAW264.7) came out at 2.7 ± 0.4 µM; in [2] (Mus musculus, RAW264.7), 1.9 ± 0.3 µM. For the same compound, the “mRNA expression of TNF-α” value in the data set on TNF-α is given as “significantly suppressed”. Moreover, the “Protein expression of COX-2” value in the data set with COX-2 was “attenuation”. The “Degradation of IκB-α” value in the data set on IκB-α was “blocked”. Moreover, the “Phosphorylation of IκB-α” value in the data set on IκB-α is reported as “attenuated”. Besides, in the data set with p38, the “Phosphorylation of p38” value is listed as “did not suppress”. In addition, the “mRNA expression of IL-6” value with IL-6 is recorded as “significantly suppressed”. Further, in the data set on RAW264.7 macrophages (RAW264.7 macrophages, MTT), the “Cytotoxicity (μM): the maximum concentration not affecting cell viability” value was 20 µM. The “Phosphorylation of ERK” value in [4] is “did not suppress”.

With 5,7-Di-O-methylcurvularin [Formula 1c], the values for the IC50 in [1] and in data set [2] were 49.4 ± 14 µM and 60.6 ± 16.4 µM, respectively. In addition, the “Cytotoxicity (μM): the maximum concentration not affecting cell viability” value in the data set with RAW264.7 macrophages is over 80 µM.

Turning to `C[C@H]1CCC[C@H](O)C(=O)c2c(O)cc(O)cc2CC(=O)O1` [Formula 2b, (11S,15S)-11-hydroxycurvularin], the IC50 in data set [1] came to 14.1 ± 4 µM; in data set [2], 7.2 ± 1.6 µM. For the same compound, the “Cytotoxicity (μM): the maximum concentration not affecting cell viability” value in the data set with RAW264.7 macrophages (RAW264.7 macrophages, MTT) worked out at 40 µM.

Take `C[C@H]1CCC/C=C\C(=O)c2c(O)cc(O)cc2CC(=O)O1` [Formula 4, (10Z,15S)-10,11-dehydrocurvularin]: the IC50 in data set [1] (Mus musculus, RAW264.7) was 6.2 ± 1.1 µM; in [2] (Mus musculus, RAW264.7), 4.4 ± 0.8 µM. In the data set on RAW264.7 macrophages (RAW264.7 macrophages, MTT), the “Cytotoxicity (μM): the maximum concentration not affecting cell viability” value stood at 20 µM.

Consider 5,7-Di-O-acetylcurvularin [Formula 1e], for which the concentration for half-maximal inhibition (IC50) was over 80 µM in data set [1] and 77.5 ± 9.3 µM in data set [2]. In the data set with RAW264.7 macrophages, the “Cytotoxicity (μM): the maximum concentration not affecting cell viability” value is over 80 µM.

Take `CO[C@@H]1CCC[C@H](C)OC(=O)Cc2cc(O)cc(O)c2C(=O)C1` [Formula 2c, (11R,15S)-11-methoxycurvularin]: the IC50 is 3 ± 1.3 µM in [1] and 2.6 ± 0.4 µM in data set [2]. Moreover, the “Cytotoxicity (μM): the maximum concentration not affecting cell viability” value in the data set on RAW264.7 macrophages (RAW264.7 macrophages, MTT) was 20 µM.

Take `CC(=O)Oc1cc(O)c2c(c1)CC(=O)O[C@@H](C)CCCCCC2=O` [Formula 1d, 5-O-acetylcurvularin]: the half-inhibitory concentration (IC50) came out at 73.7 ± 17.1 µM in data set [1] and 46.9 ± 3.7 µM in [2]. In the data set with RAW264.7 macrophages, the “Cytotoxicity (μM): the maximum concentration not affecting cell viability” value is over 80 µM.

Turning to `C[C@H]1CCC[C@@H](O)CC(=O)c2c(O)cc(O)cc2CC(=O)O1` [Formula 2a, (11R,15S)-11-hydroxycurvularin], the IC50 in data set [1] is 15.6 ± 5.2 µM; in data set [2] it was 11.5 ± 2.7 µM. In the data set on RAW264.7 macrophages (RAW264.7 macrophages, MTT), the “Cytotoxicity (μM): the maximum concentration not affecting cell viability” value is 40 µM.

As to `COc1cc(O)c2c(c1)CC(=O)O[C@@H](C)CCCCCC2=O` [Formula 1b, 5-O-methylcurvularin], the values for the IC50 in data set [1] and in [2] were 40.2 ± 5.1 µM and over 80 µM, respectively. Also, the “Cytotoxicity (μM): the maximum concentration not affecting cell viability” value in the data set with RAW264.7 macrophages (RAW264.7 macrophages, MTT) is over 80 µM.

Take `CO[C@H]1CCC[C@H](C)OC(=O)Cc2cc(O)cc(O)c2C1=O` [Formula 2d, (11S,15S)-11-methoxycurvularin]: the IC50 in data set [1] is 6 ± 1.9 µM; in data set [2] it was 3.5 ± 0.5 µM. Besides, the “Cytotoxicity (μM): the maximum concentration not affecting cell viability” value with RAW264.7 macrophages (RAW264.7 macrophages, MTT) was found to be 20 µM.

Values taken from patent US20210177796A1, “COMPOSITION FOR PREVENTING OR TREATING INFLAMMATORY DISEASES, CONTAINING MARINE FUNGUS PENICILLIUM SP. SF-5859-DERIVED CURVULARIN-TYPE METABOLITES” (KOREA INSITITUTE OF OCEAN SCIENCE AND TECHNOLOGY, priority 2017, published 2021).
